Results as given in ChEMBL document CHEMBL5465560, “Selectivity Literature for EUbOPEN Chemogenomic Library” (2024).
One block for each molecule: values may come before it.

How the values were obtained:
[1] = molecular target: Ribosomal protein S6 kinase alpha-5 (Homo sapiens) (UniProt O75582); experiment: Selectivity interaction (Ambit KINOMEscan and KiNATiv profiling in Jurkat cells) EUB0000090b RPS6KA5; format: cell-based; conditions: at 1 µM
[2] = molecular target: T1, Mitogen-activated protein kinase kinase kinase 2 (Homo sapiens) (UniProt Q9Y2U5); experiment: Selectivity interaction (ActivX KiNativ screen (ex vivo kinase selectivity in human PBMCs)) EUB0001619a MAP3K2; format: cell-based; conditions: PBMC, at 1 µM
T1 sequence (whole entry): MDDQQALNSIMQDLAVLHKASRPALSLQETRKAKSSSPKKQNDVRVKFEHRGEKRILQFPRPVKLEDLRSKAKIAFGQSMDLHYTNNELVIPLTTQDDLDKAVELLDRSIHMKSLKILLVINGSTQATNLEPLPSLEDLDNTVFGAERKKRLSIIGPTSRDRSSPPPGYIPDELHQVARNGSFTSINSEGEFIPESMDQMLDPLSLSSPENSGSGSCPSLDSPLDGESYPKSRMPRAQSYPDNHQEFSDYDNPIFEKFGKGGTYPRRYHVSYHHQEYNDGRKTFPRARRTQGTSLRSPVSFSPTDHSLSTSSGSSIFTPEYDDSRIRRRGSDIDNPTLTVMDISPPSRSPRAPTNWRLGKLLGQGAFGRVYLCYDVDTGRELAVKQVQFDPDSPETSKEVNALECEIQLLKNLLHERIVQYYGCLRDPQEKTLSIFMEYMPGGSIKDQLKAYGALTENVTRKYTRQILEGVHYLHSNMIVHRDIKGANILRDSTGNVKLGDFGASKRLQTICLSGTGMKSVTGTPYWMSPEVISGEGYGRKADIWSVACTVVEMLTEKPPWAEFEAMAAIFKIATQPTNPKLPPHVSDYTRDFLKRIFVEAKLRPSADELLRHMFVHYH

[3] = molecular target: Tyrosine-protein kinase Fyn (Homo sapiens) (UniProt P06241); experiment: Selectivity interaction (ActivX KiNativ screen (kinase selectivity in THP-1 cell lysates)) EUB0000639a FYN; format: subcellular; conditions: lysate, at 1 µM
[4] = molecular target: Serine/threonine-protein kinase PRP4 homolog (Homo sapiens) (UniProt Q13523); experiment: Selectivity interaction (ActivX KiNativ screen (kinase selectivity in THP-1 cell lysates)) EUB0000639a PRPF4; format: subcellular; conditions: lysate, at 0.01 µM
[5] = molecular target: Serine/threonine-protein kinase SIK3 (Homo sapiens) (UniProt Q9Y2K2); experiment: Selectivity interaction (ActivX KiNativ screen (kinase selectivity in THP-1 cell lysates)) EUB0000639a SIK3; format: subcellular; conditions: lysate
[6] = molecular target: Mitogen-activated protein kinase 10 (Homo sapiens, UniProt P53779); experiment: Selectivity interaction (KinomeScan (DiscoverX)) EUB0000229b MAPK10; conditions: at 10 µM
[7] = molecular target: Cyclin-dependent kinase 3 (Homo sapiens) (UniProt Q00526); experiment: Selectivity interaction (KinomeScan (DiscoverX)) EUB0000666a CDK3; conditions: at 10 µM
[8] = molecular target: T2, Tyrosine-protein kinase ITK/TSK (Homo sapiens) (UniProt Q08881); experiment: Selectivity interaction (KinomeScan (DiscoverX)) EUB0000666a ITK; conditions: at 10 µM
T2 sequence (whole entry): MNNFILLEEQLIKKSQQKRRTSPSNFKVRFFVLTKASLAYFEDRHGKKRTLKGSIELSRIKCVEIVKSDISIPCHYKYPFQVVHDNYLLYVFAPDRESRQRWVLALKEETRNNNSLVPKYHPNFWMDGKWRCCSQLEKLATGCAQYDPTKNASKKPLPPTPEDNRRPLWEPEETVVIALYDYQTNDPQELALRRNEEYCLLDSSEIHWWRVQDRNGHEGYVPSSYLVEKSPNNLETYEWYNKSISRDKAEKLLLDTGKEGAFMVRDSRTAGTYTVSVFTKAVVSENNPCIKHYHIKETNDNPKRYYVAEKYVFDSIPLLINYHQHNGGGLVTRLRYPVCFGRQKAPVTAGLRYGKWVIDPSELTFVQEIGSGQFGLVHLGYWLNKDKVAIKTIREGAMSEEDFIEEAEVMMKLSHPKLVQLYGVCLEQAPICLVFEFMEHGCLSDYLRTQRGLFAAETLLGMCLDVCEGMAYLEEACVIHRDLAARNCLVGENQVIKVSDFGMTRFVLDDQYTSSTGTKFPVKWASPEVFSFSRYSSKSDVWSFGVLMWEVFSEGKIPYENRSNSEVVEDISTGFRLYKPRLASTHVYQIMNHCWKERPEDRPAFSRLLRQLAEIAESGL

[9] = molecular target: T3, Tyrosine-protein kinase Mer (Homo sapiens) (UniProt Q12866); experiment: Selectivity interaction (KinomeScan (DiscoverX)) EUB0000092b MERTK; conditions: at 10 µM
T3 sequence (whole entry): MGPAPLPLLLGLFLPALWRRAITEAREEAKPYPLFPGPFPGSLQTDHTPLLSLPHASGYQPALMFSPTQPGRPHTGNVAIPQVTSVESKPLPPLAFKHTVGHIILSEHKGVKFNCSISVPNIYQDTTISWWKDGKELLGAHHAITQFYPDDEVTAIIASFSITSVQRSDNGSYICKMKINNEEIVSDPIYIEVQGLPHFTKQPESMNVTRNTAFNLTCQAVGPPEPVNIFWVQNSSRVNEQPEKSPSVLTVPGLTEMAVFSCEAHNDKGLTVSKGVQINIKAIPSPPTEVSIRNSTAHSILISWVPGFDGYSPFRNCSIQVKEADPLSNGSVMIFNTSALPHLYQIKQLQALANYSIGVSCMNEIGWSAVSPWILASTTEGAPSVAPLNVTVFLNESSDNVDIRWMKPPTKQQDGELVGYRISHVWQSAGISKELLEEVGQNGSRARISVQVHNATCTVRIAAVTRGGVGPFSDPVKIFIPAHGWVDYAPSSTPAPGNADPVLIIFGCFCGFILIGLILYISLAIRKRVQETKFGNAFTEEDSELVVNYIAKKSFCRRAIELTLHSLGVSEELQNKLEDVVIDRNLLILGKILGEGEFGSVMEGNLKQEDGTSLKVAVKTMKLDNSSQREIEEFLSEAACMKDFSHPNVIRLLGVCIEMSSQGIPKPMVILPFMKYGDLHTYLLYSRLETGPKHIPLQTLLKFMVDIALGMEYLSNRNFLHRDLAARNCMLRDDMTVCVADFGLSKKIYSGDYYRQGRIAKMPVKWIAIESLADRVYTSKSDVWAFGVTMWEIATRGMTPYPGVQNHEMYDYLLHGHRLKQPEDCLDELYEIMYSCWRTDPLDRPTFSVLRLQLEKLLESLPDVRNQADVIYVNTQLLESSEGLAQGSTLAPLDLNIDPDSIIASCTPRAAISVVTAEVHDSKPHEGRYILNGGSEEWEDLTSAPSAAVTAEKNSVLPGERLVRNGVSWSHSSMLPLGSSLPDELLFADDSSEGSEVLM

Sequence of Serine/threonine-protein kinase SIK3 (Homo sapiens) (Q9Y2K2 whole entry, looked up): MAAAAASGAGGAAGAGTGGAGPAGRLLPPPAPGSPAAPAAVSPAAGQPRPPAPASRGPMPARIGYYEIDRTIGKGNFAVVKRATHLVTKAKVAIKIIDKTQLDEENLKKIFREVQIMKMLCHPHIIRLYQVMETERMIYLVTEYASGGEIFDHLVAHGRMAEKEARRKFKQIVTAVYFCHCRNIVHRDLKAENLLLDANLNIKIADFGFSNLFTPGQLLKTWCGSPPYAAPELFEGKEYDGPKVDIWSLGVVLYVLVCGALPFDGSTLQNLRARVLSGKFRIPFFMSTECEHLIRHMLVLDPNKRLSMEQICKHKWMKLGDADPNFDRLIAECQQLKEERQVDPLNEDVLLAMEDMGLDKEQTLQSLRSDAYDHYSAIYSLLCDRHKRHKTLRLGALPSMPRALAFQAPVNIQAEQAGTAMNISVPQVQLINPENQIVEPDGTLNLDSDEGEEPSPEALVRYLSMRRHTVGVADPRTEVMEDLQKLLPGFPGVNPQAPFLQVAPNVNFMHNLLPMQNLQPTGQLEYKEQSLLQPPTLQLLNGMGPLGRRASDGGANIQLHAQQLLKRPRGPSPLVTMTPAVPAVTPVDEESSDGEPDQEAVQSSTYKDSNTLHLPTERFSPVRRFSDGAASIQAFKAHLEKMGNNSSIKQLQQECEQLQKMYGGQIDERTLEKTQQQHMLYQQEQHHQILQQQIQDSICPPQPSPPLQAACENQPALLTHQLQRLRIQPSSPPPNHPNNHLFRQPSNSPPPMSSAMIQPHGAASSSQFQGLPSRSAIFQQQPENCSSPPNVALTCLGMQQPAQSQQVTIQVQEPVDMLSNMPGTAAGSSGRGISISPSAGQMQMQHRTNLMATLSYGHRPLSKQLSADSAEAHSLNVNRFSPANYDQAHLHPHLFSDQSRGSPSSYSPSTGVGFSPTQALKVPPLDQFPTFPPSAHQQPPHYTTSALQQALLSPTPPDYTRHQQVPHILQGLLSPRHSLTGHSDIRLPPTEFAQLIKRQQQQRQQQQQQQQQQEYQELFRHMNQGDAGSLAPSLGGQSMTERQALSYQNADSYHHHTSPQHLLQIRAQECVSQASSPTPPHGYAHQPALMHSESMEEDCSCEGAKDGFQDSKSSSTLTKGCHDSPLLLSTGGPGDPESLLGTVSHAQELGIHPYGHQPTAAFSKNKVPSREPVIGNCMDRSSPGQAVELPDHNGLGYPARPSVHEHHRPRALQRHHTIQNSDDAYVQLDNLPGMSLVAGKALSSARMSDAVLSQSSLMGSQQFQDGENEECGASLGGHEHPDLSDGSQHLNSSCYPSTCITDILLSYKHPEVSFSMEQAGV
Sequence of Cyclin-dependent kinase 3 (Homo sapiens) (Q00526 whole entry, looked up): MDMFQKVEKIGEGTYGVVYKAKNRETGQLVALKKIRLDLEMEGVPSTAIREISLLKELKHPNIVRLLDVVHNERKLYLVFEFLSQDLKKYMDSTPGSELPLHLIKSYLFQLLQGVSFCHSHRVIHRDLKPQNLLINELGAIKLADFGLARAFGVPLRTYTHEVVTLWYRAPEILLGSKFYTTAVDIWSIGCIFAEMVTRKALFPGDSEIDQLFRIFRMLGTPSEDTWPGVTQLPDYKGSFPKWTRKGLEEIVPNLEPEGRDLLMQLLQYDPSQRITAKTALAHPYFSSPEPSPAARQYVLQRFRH
Sequence of Mitogen-activated protein kinase 10 (P53779 whole entry): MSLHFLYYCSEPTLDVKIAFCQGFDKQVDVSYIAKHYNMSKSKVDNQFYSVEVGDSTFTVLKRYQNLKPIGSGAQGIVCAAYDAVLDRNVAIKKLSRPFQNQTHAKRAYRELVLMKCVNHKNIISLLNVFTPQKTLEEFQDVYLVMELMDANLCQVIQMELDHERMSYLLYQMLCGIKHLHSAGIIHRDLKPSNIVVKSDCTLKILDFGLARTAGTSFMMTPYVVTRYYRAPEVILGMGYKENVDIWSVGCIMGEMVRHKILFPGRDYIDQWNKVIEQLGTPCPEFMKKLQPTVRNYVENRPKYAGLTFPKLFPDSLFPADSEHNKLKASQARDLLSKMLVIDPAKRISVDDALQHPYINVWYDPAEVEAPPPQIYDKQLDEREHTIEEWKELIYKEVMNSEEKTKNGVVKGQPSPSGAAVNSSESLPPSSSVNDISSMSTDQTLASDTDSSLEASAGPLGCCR
Sequence of Serine/threonine-protein kinase PRP4 homolog (Homo sapiens) (Q13523 whole entry): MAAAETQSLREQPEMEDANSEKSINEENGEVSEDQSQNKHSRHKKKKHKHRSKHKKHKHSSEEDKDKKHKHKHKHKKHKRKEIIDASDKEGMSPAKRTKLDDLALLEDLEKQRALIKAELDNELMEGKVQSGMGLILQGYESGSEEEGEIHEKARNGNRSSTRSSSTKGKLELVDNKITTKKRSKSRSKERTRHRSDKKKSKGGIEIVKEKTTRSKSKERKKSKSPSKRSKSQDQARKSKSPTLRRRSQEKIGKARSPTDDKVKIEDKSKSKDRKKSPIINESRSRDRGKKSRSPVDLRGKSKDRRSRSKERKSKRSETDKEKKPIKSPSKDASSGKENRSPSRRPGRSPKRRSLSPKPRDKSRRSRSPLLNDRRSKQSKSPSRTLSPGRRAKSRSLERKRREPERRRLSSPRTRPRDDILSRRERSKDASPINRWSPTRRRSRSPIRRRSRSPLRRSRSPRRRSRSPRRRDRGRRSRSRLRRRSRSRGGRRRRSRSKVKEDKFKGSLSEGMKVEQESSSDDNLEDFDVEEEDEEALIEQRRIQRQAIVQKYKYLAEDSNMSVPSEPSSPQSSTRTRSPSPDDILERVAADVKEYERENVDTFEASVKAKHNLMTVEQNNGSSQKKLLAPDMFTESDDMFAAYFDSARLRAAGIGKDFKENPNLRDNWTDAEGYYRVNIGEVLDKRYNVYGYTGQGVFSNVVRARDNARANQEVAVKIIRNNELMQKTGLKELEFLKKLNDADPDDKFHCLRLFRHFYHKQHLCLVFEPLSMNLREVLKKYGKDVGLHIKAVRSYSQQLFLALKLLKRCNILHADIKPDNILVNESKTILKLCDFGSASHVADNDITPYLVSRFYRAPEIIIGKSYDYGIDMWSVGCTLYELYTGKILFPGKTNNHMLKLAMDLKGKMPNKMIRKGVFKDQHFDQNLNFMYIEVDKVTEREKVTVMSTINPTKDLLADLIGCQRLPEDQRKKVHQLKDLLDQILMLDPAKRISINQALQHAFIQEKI
Sequence of Ribosomal protein S6 kinase alpha-5 (Homo sapiens) (O75582 whole entry, looked up): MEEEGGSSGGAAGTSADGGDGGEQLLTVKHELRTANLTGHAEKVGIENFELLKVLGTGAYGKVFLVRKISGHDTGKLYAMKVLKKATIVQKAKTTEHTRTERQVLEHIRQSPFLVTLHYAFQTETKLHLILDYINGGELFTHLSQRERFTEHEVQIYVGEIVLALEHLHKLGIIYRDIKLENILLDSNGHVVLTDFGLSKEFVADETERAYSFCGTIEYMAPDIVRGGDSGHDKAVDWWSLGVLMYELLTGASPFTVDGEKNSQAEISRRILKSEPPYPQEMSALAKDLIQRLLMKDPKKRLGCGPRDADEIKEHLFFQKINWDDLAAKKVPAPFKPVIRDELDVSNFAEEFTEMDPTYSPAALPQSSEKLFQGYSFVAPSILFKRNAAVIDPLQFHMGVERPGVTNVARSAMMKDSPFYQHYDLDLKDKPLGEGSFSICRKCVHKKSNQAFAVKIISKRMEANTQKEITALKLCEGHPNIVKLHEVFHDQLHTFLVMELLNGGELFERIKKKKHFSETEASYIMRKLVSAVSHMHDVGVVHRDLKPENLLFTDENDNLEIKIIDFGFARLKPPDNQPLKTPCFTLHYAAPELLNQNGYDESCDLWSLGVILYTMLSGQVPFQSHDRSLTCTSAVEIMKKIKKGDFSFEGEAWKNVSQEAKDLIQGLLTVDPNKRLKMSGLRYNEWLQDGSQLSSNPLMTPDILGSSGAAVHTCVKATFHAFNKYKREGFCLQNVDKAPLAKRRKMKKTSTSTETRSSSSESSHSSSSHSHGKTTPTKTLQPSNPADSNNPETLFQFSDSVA
Sequence of Tyrosine-protein kinase Fyn (Homo sapiens) (P06241 2-537 limits assumed): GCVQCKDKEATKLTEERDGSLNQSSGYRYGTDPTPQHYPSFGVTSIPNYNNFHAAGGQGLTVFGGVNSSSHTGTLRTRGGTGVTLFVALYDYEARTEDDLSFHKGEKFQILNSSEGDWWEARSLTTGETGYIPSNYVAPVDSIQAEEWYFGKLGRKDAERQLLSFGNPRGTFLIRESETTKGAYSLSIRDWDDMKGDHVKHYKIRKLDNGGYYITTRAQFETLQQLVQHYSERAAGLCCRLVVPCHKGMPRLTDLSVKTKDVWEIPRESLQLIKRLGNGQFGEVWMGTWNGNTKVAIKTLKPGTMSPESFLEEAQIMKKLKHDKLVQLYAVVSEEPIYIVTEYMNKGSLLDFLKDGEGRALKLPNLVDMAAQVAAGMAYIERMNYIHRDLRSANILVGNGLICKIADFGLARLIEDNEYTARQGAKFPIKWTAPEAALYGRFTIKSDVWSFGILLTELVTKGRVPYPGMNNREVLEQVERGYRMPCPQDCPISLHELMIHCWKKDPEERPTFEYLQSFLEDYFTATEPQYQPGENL

SMILES: CN(C)C/C=C/C(=O)Nc1ccc(C(=O)N2CCCC(Nc3ncc(Cl)c(-c4c[nH]c5ccccc45)n3)C2)cc1 (stereo not drawn)
% of control [1]: 86%

SMILES: N#Cc1cccc(-c2c[nH]c3ncnc(N4CCOCC4)c23)c1
% of inhibition [2]: 15%

% of inhibition [3]: -11%
% of inhibition [4]: 15.8%
% of inhibition ([5]; at 0.01 µM): 5.4%
% of inhibition ([5]; at 0.04 µM): 3.4%
% of inhibition ([5]; at 0.2 µM): 15.7%
% of inhibition ([5]; at 1 µM): -1.4%
% of inhibition ([5]; at 5 µM): -7.8%
SMILES: CC[C@@H]1[C@H](F)C(=O)N[C@@H]1COc1nccc2cc(C(N)=O)c(OC)cc12 [ZIMLOVISERTIB]

SMILES: COc1cc(N(C)c2ccnc3ccc(C(F)(F)F)cc23)cc(OC)c1OC
% binding [6]: 88%

SMILES: O=C(NOC[C@H](O)CO)c1ccc(F)c(F)c1Nc1ccc(I)cc1F
% of control [7]: 69%
% of control [8]: 97%

SMILES: CCC(=O)N1CCN(c2ccc(-n3c(=O)ccc4cnc5ccc(-c6cnc7ccccc7c6)cc5c43)cc2C(F)(F)F)CC1
% of control [9]: 53%
